The subject of assay [1] is human embryonic stem cell line H1. The experiment in a line: Real-time PCR of pluripotency and differentiation genes. The assay is classed as cell-based. The note with it: passage 3, Example 5. From the text: After passage 5, only IH-1 and IH-3 were further compared to the cells cultured in mTeSR®1 media (Catalog No. 05850, Stem-Cell Technologies, Inc., Vancouver BC, Canada). […]
Approximately 1% of the cells were SOX17+ (FIG. 7D) and ˜85% of the cells were FOXA2+ (FIG. 7E). FIG. 8A to FIG. 8F show images of immunofluorescence staining of H1 cells cultured in IH-3 media for 18 passages. These images illustrate that a significant number of OCT4 and SOX2 positive cells were also FOXA2+. H1 cells cultured in IH3 media had acquired a phenotype where at least 70% of the cells were OCT4+ NANOG+ SOX2+ KI-67+ ZFP42− and FOXA2+. This represents a population of cells not yet described in the art.

Assay [2] shares this test system. Briefly: Culture in test media: growth and colony morphology (phase-contrast). The note with it: Example 5. The assay is classed as cell-based. The procedure: Cells of the human embryonic stem cell line H1 (at passage 35 to passage 40), cultured on MATRIGEL™ (Catalog No. 354230, 1:30 dilution; Corning Incorporated, Corning, N.Y.) coated dishes in mTeSR®1 media (Catalog No. 05850, Stem-Cell Technologies, Inc., Vancouver BC, Canada) and passaged using ethylenediaminetetraacetic acid (“EDTA”), were used as the starting population to test various media compositions. Cells were passaged as small colonies using 5-10 min EDTA (Catalog No. #170711E, Lonza Walkersville, Inc., Walkersville, Md.) treatment at room temperature. Cultures were routinely split in a ratio of 1:6 to 1:10 at each passage. Table I lists the initial media formulations tested for their ability to proliferate H1 cells while maintaining their undifferentiated morphology and pluripotency markers.
Media IH-1, IH-3, and IH-6 were selected for further evaluation.

Setting [3] is: day 4 following seeding, IH-3-2 media with the given BSA.
[4] abbreviates: passage 3, IH-3-2 media with the given BSA.

“Sigma BSA: 2% Sigma BSA (catalog No. A2153; Lot: 061M1804V, Sigma Aldrich) used to supplement IH-3-2 media”: the “Markers associated with a differentiated cell (AFP, MIXL1, T (BRY); PCR)” value in assay [1] was “significant upregulation”. Also, the Cell morphology entry in assay [2] (setting [3]) and in assay [2] (setting [4]) was “morphological evidence of differentiated cells” throughout. For the same substance, the Confluency of cells entry in assay [2] (passage 3, compared to fatty acid free BSA) is reported as “significant drop in confluency”.

On to “fatty acid-free BSA: fatty-acid free BSA (Catalog No. 7500804; Lot: 11G54001, LAMPIRE Biological Laboratories) in IH-3-2 media”, for which the Cell morphology result in assay [2] (setting [3]) and in assay [2] (setting [4]) was “no gross differentiated cell morphology evident” throughout.

Values taken from US9593307B2, “Defined media for expansion and maintenance of pluripotent stem cells” (Janssen Biotech, Inc., priority 2012, dated 2017).
